How the values were obtained:
KOR = KOR (Homo sapiens, UniProt P41145); assay: β-arrestin-1 recruitment to KOR (NanoBiT, U87 cells); format: cell-based; design: expressed in transfected cells; host or cells: U87 cells, transient co-transfection of pNBe vectors; details: concentrations as high as 3 μM
Procedure: (§1) In brief, 1.2×10^6 U87 cells were plated in 10 cm-culture dishes and 48 hours later co-transfected with pNBe vectors encoding GPCRs C-terminally tagged to SmBiT and human β-arrestin-1 or -2 or mini G proteins (mG, engineered GTPase domains of Gα subunits,) N-terminally fused to LgBiT. 48 hours post-transfection cells were harvested, incubated 25 minutes at 37° C. with Nano-Glo Live Cell substrate diluted 200-fold and distributed into white 96-well plates (5×10^4 cells per well). Ligand-induced, β-arrestin and mG recruitment to GPCRs was evaluated with a Mithras LB940 luminometer (Berthold Technologies) for 20 minutes. For concentration-response curves, the signal recorded with a saturating concentration of full agonist for each receptor was set as 100%.

ACKR3 [1] = biological target: T1, ACKR3 (Homo sapiens, UniProt P25106); format: cell-based; design: expressed in transfected cells; host or cells: U87 cells, transient co-transfection of pNBe vectors
Target sequence in this assay (P25106 whole entry): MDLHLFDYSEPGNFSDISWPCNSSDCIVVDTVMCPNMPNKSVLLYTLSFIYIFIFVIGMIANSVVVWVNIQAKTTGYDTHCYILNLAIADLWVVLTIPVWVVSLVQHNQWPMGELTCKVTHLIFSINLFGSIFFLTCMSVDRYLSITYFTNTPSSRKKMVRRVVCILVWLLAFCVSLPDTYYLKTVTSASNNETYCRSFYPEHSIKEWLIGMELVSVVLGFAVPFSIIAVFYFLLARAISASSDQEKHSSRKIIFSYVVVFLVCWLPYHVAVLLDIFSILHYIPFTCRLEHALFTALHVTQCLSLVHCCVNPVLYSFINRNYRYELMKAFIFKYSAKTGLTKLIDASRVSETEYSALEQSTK
Target sequence in this assay (P49407 whole entry partner): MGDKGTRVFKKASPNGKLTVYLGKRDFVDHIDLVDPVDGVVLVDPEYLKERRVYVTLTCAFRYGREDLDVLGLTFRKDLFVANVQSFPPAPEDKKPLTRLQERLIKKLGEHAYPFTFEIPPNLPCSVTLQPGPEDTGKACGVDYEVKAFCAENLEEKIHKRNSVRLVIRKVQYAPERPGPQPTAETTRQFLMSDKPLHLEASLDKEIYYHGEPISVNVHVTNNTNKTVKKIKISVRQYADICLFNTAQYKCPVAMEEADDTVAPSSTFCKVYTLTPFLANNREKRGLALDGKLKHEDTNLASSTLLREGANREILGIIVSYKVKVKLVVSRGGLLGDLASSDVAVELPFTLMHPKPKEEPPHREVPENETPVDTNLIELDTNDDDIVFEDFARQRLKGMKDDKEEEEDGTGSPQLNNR

mouse ACKR3 (mACKR3) = biological target: T2, mouse ACKR3 (mACKR3) (Mus musculus, UniProt P56485); assay: β-arrestin-1 recruitment to mouse ACKR3; format: cell-based
T2 construct: expressed in transfected cells; host or cells: U87 cells
Procedure: as §1

[2] = system: rat locus coeruleus neurons; format: cell-based
Procedure: 1.9. Ex Vivo Rat Neuron Depolarization
Adult male Wistar rats (6 to 8-week old) were housed at room temperature in groups of three or four with a 12:12 hour light-dark cycle. All animals had access to ad libitum food and water. All procedures were carried out in accordance with guidelines of the European Communities Council Directive of 24 Nov. 1986 (86609EE) and were accepted by the Ethics Committee for Animal Use of the University of Liège (protocol 2061). All efforts were made to minimize animal suffering.
1.9.2. Brain Explant Preparation and Recording Procedures
Rats were anaesthetized with chloral hydrate (400 mg/kg, i.p.) and placed under a cap with oxygenated air (95% O2, 5% CO2) two minutes prior to decapitation. After decapitation, the brain was rapidly removed and placed in ice cold (˜2° C.) oxygenated artificial cerebrospinal fluid (aCSF) of the following composition: NaCl 130 mM, KCl 3.5 mM, NaH2PO4 1.25 mM, NaHCO3 24 mM, Glucose 10 mM, CaCl2 2 mM, MgSO4 1.25 mM. A block of tissue containing the pons was placed in a vibrating blade microtome (Vibratome 1000 Plus, Sectioning System) and a slice containing the locus coeruleus (LC) immediately rostral to the fourth ventricle and the VIIth nerve, used as anatomical landmarks, was cut coronally (400 μm thick). The slice was placed on a nylon mesh in a recording chamber (volume: 0.5 ml) where it was superfused by oxygenated aCSF (34.0±0.5° C.) at a rate of 2 to 3 ml/min. The LC was recognized as a translucent region during transillumination, lateral to the fourth ventricle. All experiments were performed in oxygenated aCSF with synaptic blockers consisting of 10 μM CNQX, 10 μM SR95531, 1 μM MK801, and 1 μM CGP55845, which block AMPA/Kainate, GABAA, NMDA, and GABAB receptors, respectively. This ensured that the spontaneous firing of the neurons was only due to its endogenous pace making.
Extracellular single cell recordings of LC neurons were performed with glass microelectrodes filled with aCSF (resistance 10-20 MΩ). Signals were passed through an impedance adapter and were amplified 1000× using a home-made amplifier. […] Data were collected and analysed with the Spike 2 software (Cambridge Electronic Design). […] The duration of the extracellularly recorded action potentials was 2-3 ms. Drugs and peptides were applied for at least 10 minutes.
The mean firing rate over 1 minute was calculated during each condition. Next, the inhibition of firing by the peptides and drugs used (LIH383 and dynorphin) was quantified as the % of total inhibition. For this purpose, present inventors considered the mean firing rate during the last minute of each condition (control, LIH383 alone, LIH383 plus a given concentration of dynorphin).

[3] = system: 24 other chemokine receptors; assay: β-arrestin recruitment to all other chemokine receptors (panel, NanoBiT, U87 cells); format: cell-based, human; details: 3 μM
Procedure: as §1

ACKR3 [4] = assay: Binding competition | ACKR3 | IC50 (nM)
Description: Table printed on a drawing sheet, FIG. 1 (continued) H
Head of the field: Binding competition | ACKR3 | IC50 (nM)
The patent's description of the figure: FIG. 1 Opioid peptide library screening on ACKR3, hit confirmation and comparison with classical opioid receptors. (A) The ability of 58 compounds, including natural opioid peptides from the four opioid families, variants thereof and small molecule opioid receptor modulators, to induce β-arrestin-2 recruitment to ACKR3, CXCR4 and CXCR3 in U87 cells at a concentration of 5 μM. Positive control chemokines were used at a concentration of 300 nM. Results are expressed as fold change over vehicle-treated cells and presented as mean±S.D of two replicates (B-F) Comparison of potency and efficacy of ACKR3-activating peptides in inducing β-arrestin-1 recruitment to the opioid receptors MOR (B), DOR (C), KOR (D), NOP (E) and ACKR3 (F) in U87 cells. Results are expressed as percentage of indicated agonist response. […] Results from B—H are presented as mean±S.E.M (n ? 3).
Where the first naming reader finds the target: head: Binding competition | ACKR3 | IC50 (nM)

ACKR3 [5] = biological target: T1, ACKR3; assay: Binding competition with Alexa Fluor 647-labelled CXCL12 on U87-ACKR3 cells, flow cytometry; design: expressed in transfected cells; for the receptor comparison in the uptake assay, transient pcDNA3.1); details: 5 nM CXCL12-AF647, U87-ACKR3 cells
Procedure: 1.3. Binding Competition Assays
U87-ACKR3 cells were distributed into 96-well plates (1.5×10^5 cells per well) and incubated with a mixture of 5 nM CXCL12-AF647 and unlabelled chemokines or opioid peptides at indicated concentrations for 90 minutes on ice, then washed twice with FACS buffer (PBS, 1% BSA, 0.1% NaN3) at 4° C. Dead cells were excluded using Zombie Green viability dye (BioLegend). ACKR3-negative U87 cells were used to evaluate non-specific binding of CXCL12-AF647. […] The signal obtained for CXCL12-AF647 in the absence of unlabelled chemokines was used to define 100% binding. Ligand binding was quantified by mean fluorescence intensity on a BD FACS Fortessa cytometer (BD Biosciences).
Target sequence in this assay (P25106 whole entry): as the sequence (P25106 whole entry) above

KOR, sequence (P41145 whole entry, the tested form may be a part): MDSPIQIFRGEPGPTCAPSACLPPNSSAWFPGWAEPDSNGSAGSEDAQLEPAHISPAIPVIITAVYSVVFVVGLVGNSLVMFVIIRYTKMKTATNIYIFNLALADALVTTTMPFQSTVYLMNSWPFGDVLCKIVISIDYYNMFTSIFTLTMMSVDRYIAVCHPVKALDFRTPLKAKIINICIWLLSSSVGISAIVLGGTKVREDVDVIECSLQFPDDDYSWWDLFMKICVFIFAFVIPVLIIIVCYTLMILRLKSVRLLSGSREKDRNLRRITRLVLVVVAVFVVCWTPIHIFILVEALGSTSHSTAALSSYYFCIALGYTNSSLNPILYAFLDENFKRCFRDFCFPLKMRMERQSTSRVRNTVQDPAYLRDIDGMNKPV
T2 sequence (P56485 whole entry): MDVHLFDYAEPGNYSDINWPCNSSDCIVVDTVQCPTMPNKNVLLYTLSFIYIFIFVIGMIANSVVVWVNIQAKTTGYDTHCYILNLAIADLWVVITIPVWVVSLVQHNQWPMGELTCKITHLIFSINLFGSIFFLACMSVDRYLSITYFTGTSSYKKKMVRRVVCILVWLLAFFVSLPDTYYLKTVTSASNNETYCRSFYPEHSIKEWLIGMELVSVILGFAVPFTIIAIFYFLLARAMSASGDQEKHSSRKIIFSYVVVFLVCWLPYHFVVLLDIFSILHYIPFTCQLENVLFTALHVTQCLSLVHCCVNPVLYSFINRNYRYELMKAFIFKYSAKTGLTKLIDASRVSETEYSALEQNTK
T2 sequence (P49407 whole entry partner): as the sequence (P49407 whole entry partner) above

Structure (SMILES): CSCC[C@H](NC(=O)[C@H](Cc1ccccc1)NC(=O)CNC(=O)CNC(=O)[C@@H](N)Cc1ccccc1)C(=O)N[C@@H](CCCNC(=N)N)C(=O)N[C@@H](CCCNC(=N)N)C(=O)N[C@@H](CCCCN)C(N)=O [LIH383]
- activation or inhibition of KOR (KOR): no activation or inhibition
- EC50 (range in words) (ACKR3 [1]): subnanomolar range
- potency relative to known ACKR3 agonists such as compound 18 (ACKR3 [1]): 20 times
- agonist activity on mouse ACKR3 compared with human ACKR3 (mouse ACKR3 (mACKR3)): equivalent activity on human and mouse ACKR3
- effect of pretreatment on dynorphin A-induced depolarization inhibition ([2]; LIH383 1 or 3 μM): significant increase of depolarization inhibition and an apparent improved potency of dynorphin A towards its classical receptors
- inhibition of neuronal firing ([2]; concentration as high as 3 μM): did not lead to significant inhibition of neuronal firing
- β-arrestin recruitment to the other chemokine receptors [3]: no activation or inhibition
- IC50 (ACKR3 [4]): 4 nM
- competition with CXCL12-AF647 for ACKR3 binding (ACKR3 [5]): low nanomolar concentrations

Reference: patent US12578343B2, “Selective ACKR3 modulators and uses thereof” (Luxembourg Institute of Health (LIH), priority 2019, dated 2026)
